From patent publication US20060069132A1, “Azolecarboxamide herbicides” (priority 2004, published 2006)

Columns and labels:
downy bromegrass = assay: Test C postemergence herbicide test; type: in vivo, Bromus tectorum
Procedure, shortened: (§1)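 Ratings (0 = no effect, 100 = complete control) come from visual comparison with untreated plants after 12 to 14 days in the greenhouse. Treatment was postemergence at the 1- to 4-leaf stage (2–18 cm), or at the 2-leaf stage for the flooded paddy barnyardgrass.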

wheat = assay: Test C postemergence herbicide test; type: in vivo, Triticum aestivum
Procedure, shortened: as §1

green foxtail = assay: Test E pre-/postemergence herbicide test; type: in vivo, Setaria viridis; details: Preemergence
Procedure, shortened: (§2)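 Herbicidal effect scored visually, 0–100 scale, versus controls. Treatments: preemergence on planted seed; postemergence on 2–18 cm seedlings. Greenhouse, 12 to 14 days.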

goosegrass = assay: Test E pre-/postemergence herbicide test; type: in vivo, Eleusine indica; details: Preemergence
Procedure, shortened: as §2

mustard = assay: Test E pre-/postemergence herbicide test; type: in vivo, Brassica nigra; details: Preemergence
Procedure, shortened: as §2

guineagrass = assay: Test E pre-/postemergence herbicide test; type: in vivo, Panicum maximum; details: Preemergence
Procedure, shortened: as §2

barnyardgrass = assay: Test E pre-/postemergence herbicide test; type: in vivo, Echinochloa crus-galli; details: Preemergence
Procedure, shortened: as §2

southern sandbur = assay: Test E pre-/postemergence herbicide test; type: in vivo, Cenchrus echinatus; details: Preemergence
Procedure, shortened: as §2

common sowthistle = assay: Test E pre-/postemergence herbicide test; type: in vivo, Sonchus oleraceous; details: Preemergence
Procedure, shortened: as §2

Italian ryegrass = assay: Test E pre-/postemergence herbicide test; type: in vivo, Lolium multiflorum; details: Preemergence
Procedure, shortened: as §2

broadleaf signalgrass = assay: Test E pre-/postemergence herbicide test; type: in vivo, Brachiaria platyphylla; details: Preemergence
Procedure, shortened: as §2

common chickweed = assay: Test E pre-/postemergence herbicide test; type: in vivo, Stellaria media; details: Preemergence
Procedure, shortened: as §2

tropical spiderwort = assay: Test E pre-/postemergence herbicide test; type: in vivo, Commelina benghalensis; details: Preemergence
Procedure, shortened: as §2

[1] = Postemergence, 250 g ai/ha, scale 0 to 100, 0 no effect, 100 complete control
[2] = Postemergence, 500 g ai/ha, scale 0 to 100, 0 no effect, 100 complete control
[3] = postemergence, 125 g ai/ha, scale 0 to 100
[4] = postemergence, 62 g ai/ha, scale 0 to 100
[5] = 250 g ai/ha, scale 0 (no effect) to 100 (complete control)
[6] = 500 g ai/ha, scale 0 (no effect) to 100 (complete control)

## CCNC(=O)c1cccc(NC(=O)c2nn(C(C)(C)C)nc2C)c1 [Compound 392]
Downy bromegrass; [1]
  Plant response rating, Bromegrass, Downy: 55
Downy bromegrass; [2]
  Plant response rating, Bromegrass, Downy: 60
Downy bromegrass; [3]
  Plant response rating, Bromegrass, Downy: 55
Downy bromegrass; [4]
  Plant response rating, Bromegrass, Downy: 35
wheat; [2]
  Plant response rating, Wheat: 35
wheat; [3]
  Plant response rating, Wheat: 30
wheat; [4]
  Plant response rating, Wheat: 20
Green foxtail; 62 g ai/ha, scale 0 to 100
  Plant response rating, Foxtail, Green: 10
Green foxtail; [5]
  Plant response rating, Foxtail, Green: 70
Green foxtail; [6]
  Plant response rating, Foxtail, Green: 95
goosegrass; 62 g ai/ha, scale 0 to 100
  Plant response rating, Goosegrass: 20
goosegrass; 125 g ai/ha, scale 0 to 100
  Plant response rating, Goosegrass: 70
goosegrass; [5]
  Plant response rating, Goosegrass: 85
goosegrass; [6]
  Plant response rating, Goosegrass: 95
mustard; 62 g ai/ha, scale 0 to 100
  Plant response rating, Black Mustard: 60
mustard; [5]
  Plant response rating, Black Mustard: 85
mustard; [6]
  Plant response rating, Black Mustard: 100
guineagrass; 62 g ai/ha, scale 0 to 100
  Plant response rating, Guineagrass: 75
guineagrass; 125 g ai/ha, scale 0 to 100
  Plant response rating, Guineagrass: 80
guineagrass; [5]
  Plant response rating, Guineagrass: 95
guineagrass; [6]
  Plant response rating, Guineagrass: 100
barnyardgrass; 62 g ai/ha, scale 0 to 100
  Plant response rating, Barnyardgrass: 75
barnyardgrass; 125 g ai/ha, scale 0 to 100
  Plant response rating, Barnyardgrass: 75
barnyardgrass; [5]
  Plant response rating, Barnyardgrass: 90
barnyardgrass; [6]
  Plant response rating, Barnyardgrass: 100
Southern sandbur; 62 g ai/ha, scale 0 to 100
  Plant response rating, Sandbur: 0
Southern sandbur; 125 g ai/ha, scale 0 to 100
  Plant response rating, Sandbur: 10
Southern sandbur; [5]
  Plant response rating, Sandbur: 20
Southern sandbur; [6]
  Plant response rating, Sandbur: 70
Common sowthistle; 62 g ai/ha, scale 0 to 100
  Plant response rating, Sowthistle: 20
Common sowthistle; 125 g ai/ha, scale 0 to 100
  Plant response rating, Sowthistle: 95
Common sowthistle; [5]
  Plant response rating, Sowthistle: 95
Common sowthistle; [6]
  Plant response rating, Sowthistle: 95
Italian ryegrass; 62 g ai/ha, scale 0 to 100
  Plant response rating, Ryegrass, Italian: 10
Italian ryegrass; 125 g ai/ha, scale 0 to 100
  Plant response rating, Ryegrass, Italian: 60
Italian ryegrass; [5]
  Plant response rating, Ryegrass, Italian: 70
Italian ryegrass; [6]
  Plant response rating, Ryegrass, Italian: 80
Broadleaf signalgrass; 62 g ai/ha, scale 0 to 100
  Plant response rating, Signalgrass: 10
Broadleaf signalgrass; 125 g ai/ha, scale 0 to 100
  Plant response rating, Signalgrass: 30
Broadleaf signalgrass; [5]
  Plant response rating, Signalgrass: 70
Broadleaf signalgrass; [6]
  Plant response rating, Signalgrass: 85
Common chickweed; 62 g ai/ha, scale 0 to 100
  Plant response rating, Chickweed: 60
Common chickweed; 125 g ai/ha, scale 0 to 100
  Plant response rating, Chickweed: 95
Common chickweed; [5]
  Plant response rating, Chickweed: 95
Common chickweed; [6]
  Plant response rating, Chickweed: 95
Tropical spiderwort; 125 g ai/ha, scale 0 to 100
  Plant response rating, Spiderwort: 50
Tropical spiderwort; [5]
  Plant response rating, Spiderwort: 95
Tropical spiderwort; [6]
  Plant response rating, Spiderwort: 100

## CCc1nn(C(C)(C)C)nc1C(=O)Nc1cccc(C(=O)N(C)CC)c1 [Compound 384]
Downy bromegrass; [1]
  Plant response rating, Bromegrass, Downy: 55
Downy bromegrass; [3]
  Plant response rating, Bromegrass, Downy: 45
Downy bromegrass; postemergence, 31 g ai/ha, scale 0 to 100
  Plant response rating, Bromegrass, Downy: 30
Downy bromegrass; [4]
  Plant response rating, Bromegrass, Downy: 40
wheat; [3]
  Plant response rating, Wheat: 20
wheat; [4]
  Plant response rating, Wheat: 10
Green foxtail; 62 g ai/ha, scale 0 to 100
  Plant response rating, Foxtail, Green: 10
Green foxtail; [5]
  Plant response rating, Foxtail, Green: 40
Green foxtail; [6]
  Plant response rating, Foxtail, Green: 95
goosegrass; 62 g ai/ha, scale 0 to 100
  Plant response rating, Goosegrass: 60
goosegrass; 125 g ai/ha, scale 0 to 100
  Plant response rating, Goosegrass: 80
goosegrass; [5]
  Plant response rating, Goosegrass: 85
goosegrass; [6]
  Plant response rating, Goosegrass: 95
mustard; 62 g ai/ha, scale 0 to 100
  Plant response rating, Black Mustard: 60
mustard; 125 g ai/ha, scale 0 to 100
  Plant response rating, Black Mustard: 80
mustard; [5]
  Plant response rating, Black Mustard: 85
mustard; [6]
  Plant response rating, Black Mustard: 100
guineagrass; 62 g ai/ha, scale 0 to 100
  Plant response rating, Guineagrass: 95
guineagrass; 125 g ai/ha, scale 0 to 100
  Plant response rating, Guineagrass: 95
guineagrass; [5]
  Plant response rating, Guineagrass: 95
guineagrass; [6]
  Plant response rating, Guineagrass: 100
barnyardgrass; 62 g ai/ha, scale 0 to 100
  Plant response rating, Barnyardgrass: 40
barnyardgrass; 125 g ai/ha, scale 0 to 100
  Plant response rating, Barnyardgrass: 80
barnyardgrass; [5]
  Plant response rating, Barnyardgrass: 85
barnyardgrass; [6]
  Plant response rating, Barnyardgrass: 100
Southern sandbur; 62 g ai/ha, scale 0 to 100
  Plant response rating, Sandbur: 10
Southern sandbur; 125 g ai/ha, scale 0 to 100
  Plant response rating, Sandbur: 60
Southern sandbur; [5]
  Plant response rating, Sandbur: 70
Southern sandbur; [6]
  Plant response rating, Sandbur: 100
Italian ryegrass; 62 g ai/ha, scale 0 to 100
  Plant response rating, Ryegrass, Italian: 20
Italian ryegrass; 125 g ai/ha, scale 0 to 100
  Plant response rating, Ryegrass, Italian: 75
Italian ryegrass; [5]
  Plant response rating, Ryegrass, Italian: 80
Italian ryegrass; [6]
  Plant response rating, Ryegrass, Italian: 95
Broadleaf signalgrass; 62 g ai/ha, scale 0 to 100
  Plant response rating, Signalgrass: 10
Broadleaf signalgrass; 125 g ai/ha, scale 0 to 100
  Plant response rating, Signalgrass: 70
Broadleaf signalgrass; [5]
  Plant response rating, Signalgrass: 80
Broadleaf signalgrass; [6]
  Plant response rating, Signalgrass: 80
Common chickweed; 62 g ai/ha, scale 0 to 100
  Plant response rating, Chickweed: 75
Common chickweed; 125 g ai/ha, scale 0 to 100
  Plant response rating, Chickweed: 95
Common chickweed; [5]
  Plant response rating, Chickweed: 95
Common chickweed; [6]
  Plant response rating, Chickweed: 100
Tropical spiderwort; 125 g ai/ha, scale 0 to 100
  Plant response rating, Spiderwort: 30
Tropical spiderwort; [5]
  Plant response rating, Spiderwort: 60
Tropical spiderwort; [6]
  Plant response rating, Spiderwort: 95
